# Data as given in ChEMBL document CHEMBL1140270, “Synthesis and biological evaluation of new biphalin analogues with non-hydrazine linkers” (Bioorg Med Chem Lett, 2005).
# Experiments:
# [1] = In vitro inhibition of [3H]DAMGO binding to Opioid receptor mu
# [2] = biological target: Delta-type opioid receptor (Mus musculus, UniProt P32300); test: In vitro agonist activity against Opioid receptor delta in mouse vas deferens; type: functional, tissue-based
# [3] = In vitro inhibition of [3H]DPDPE binding to Opioid receptor delta
# [4] = biological target: Mu-type opioid receptor (Cavia porcellus, UniProt P97266); test: In vitro agonist activity against Opioid receptor mu in guinea pig ileum/longitudinal muscle myenteric plexus; type: functional, tissue-based
# [5] = biological target: Delta-type opioid receptor (Mus musculus) (UniProt P32300); test: Percent inhibition against Opioid receptor delta in mouse vas deferens; type: functional, tissue-based; settings: concentration not given here
# [6] = biological target: Mu-type opioid receptor (Cavia porcellus) (UniProt P97266); test: Percent inhibition against Opioid receptor mu in guinea pig ileum/longitudinal muscle myenteric plexus; type: functional, tissue-based; settings: concentration not given here
# Mu-type opioid receptor (Cavia porcellus), sequence (P97266 whole entry): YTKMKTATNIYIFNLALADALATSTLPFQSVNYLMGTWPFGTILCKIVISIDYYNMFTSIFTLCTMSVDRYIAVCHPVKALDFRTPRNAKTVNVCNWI
# Mu-type opioid receptor, sequence (P97266 whole entry): as above
# Delta-type opioid receptor (Mus musculus), sequence (P32300 whole entry): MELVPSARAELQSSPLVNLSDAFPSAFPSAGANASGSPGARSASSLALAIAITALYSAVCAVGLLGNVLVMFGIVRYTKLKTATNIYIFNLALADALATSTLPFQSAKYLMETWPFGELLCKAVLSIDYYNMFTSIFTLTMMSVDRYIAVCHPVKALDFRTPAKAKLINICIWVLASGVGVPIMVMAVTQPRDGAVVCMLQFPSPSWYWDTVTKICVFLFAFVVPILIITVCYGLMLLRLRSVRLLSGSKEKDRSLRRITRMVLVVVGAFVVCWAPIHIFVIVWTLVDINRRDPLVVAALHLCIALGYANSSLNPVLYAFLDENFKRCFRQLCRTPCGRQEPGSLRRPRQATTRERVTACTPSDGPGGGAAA
# Delta-type opioid receptor, sequence (P32300 whole entry): as above
SMILES,IC50 [1],IC50 [2],IC50 [3],IC50 [4],inhibition [5],inhibition [6]
C[C@@H](NC(=O)[C@@H](N)Cc1ccc(O)cc1)C(=O)NCC(=O)N[C@@H](Cc1ccccc1)C(=O)N1CCN(C(=O)[C@H](Cc2ccccc2)NC(=O)CNC(=O)[C@@H](C)N[C@@H](N)Cc2ccc(O)cc2)CC1,0.48 nM,9.3 nM,0.65 nM,2.5 nM,–,–
N[C@H](Cc1ccc(O)cc1)C(=O)N[C@H](Cc1ccccc1)C(=O)Nc1ccccc1NC(=O)[C@@H](Cc1ccccc1)NC(=O)[C@H](N)Cc1ccc(O)cc1,3010 nM,–,640 nM,–,47%,61%
C[C@@H](NC(=O)[C@@H](N)Cc1ccc(O)cc1)C(=O)NCC(=O)N[C@@H](Cc1ccccc1)C(=O)NNC(=O)[C@H](Cc1ccccc1)NC(=O)CNC(=O)[C@@H](C)NC(=O)[C@@H](N)Cc1ccc(O)cc1 [BIPHALIN],1.4 nM,–,2.6 nM,–,–,–
C[C@@H](NC(=O)[C@@H](N)Cc1ccc(O)cc1)C(=O)NCC(=O)N[C@@H](Cc1ccccc1)C(=O)Nc1ccc(NC(=O)[C@H](Cc2ccccc2)NC(=O)CNC(=O)[C@@H](C)N[C@@H](N)Cc2ccc(O)cc2)cc1,1.27 nM,35.6 nM,3.17 nM,40 nM,–,–
N[C@H](Cc1ccc(O)cc1)C(=O)N[C@H](Cc1ccccc1)C(=O)Nc1ccc(NC(=O)[C@@H](Cc2ccccc2)NC(=O)[C@H](N)Cc2ccc(O)cc2)cc1,8200 nM,–,2400 nM,–,17%,43%
C[C@@H](NC(=O)[C@@H](N)Cc1ccc(O)cc1)C(=O)NCC(=O)N[C@@H](Cc1ccccc1)C(=O)Nc1ccccc1NC(=O)[C@H](Cc1ccccc1)NC(=O)CNC(=O)[C@@H](C)N[C@@H](N)Cc1ccc(O)cc1,1.93 nM,0.72 nM,0.19 nM,40 nM,–,–
N[C@H](Cc1ccc(O)cc1)C(=O)N[C@H](Cc1ccccc1)C(=O)N1CCN(C(=O)[C@@H](Cc2ccccc2)NC(=O)[C@H](N)Cc2ccc(O)cc2)CC1,2700 nM,–,400 nM,–,8.1%,25.5%
